Experimental data taken from PubChem BioAssay AID192 (DTP/NCI, 2004).
Several values for one entry are separate records, joined by “and”; a condition that tells them apart may be missing. Identical values can stand only once. Inconclusive results and toxic doses are left out. Square brackets hold non-standard residues; d marks the D form. Peptide text beside a SMILES is read from it. * marks the point of attachment. ξ: configuration not given here. ξF = NC(Cc1ccccc1)C(=O)O; ClAc = O=C(CCl)*

Tested on: BDF1 mice, B16 melanoma ip, median survival T/C
Assay: NCI In Vivo Anticancer Drug Screen. Data for tumor model B16 Melanoma (intraperitoneal) in B6D2F1 (BDF1) mice
Settings: endpoint: median survival time, higher = longer survival
In short: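 In this screen, activity was judged from survival or tumor size in treated versus vehicle-treated tumor-bearing mice, reported as T/C.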

[1] = dose: 12.5 mg/kg/injection, schedule: Q01DX009 (ip), vehicle: saline with Tween-80
[2] = dose: 25.0 mg/kg/injection, schedule: Q01DX009 (ip), vehicle: saline with Tween-80
[3] = dose: 50.0 mg/kg/injection, schedule: Q01DX009 (ip), vehicle: saline with Tween-80
[4] = dose: 100.0 mg/kg/injection, schedule: Q01DX009 (ip), vehicle: saline with Tween-80
[5] = dose: 200.0 mg/kg/injection, schedule: Q01DX009 (ip), vehicle: saline with Tween-80
[6] = dose: 400.0 mg/kg/injection, schedule: Q01DX009 (ip), vehicle: saline with Tween-80
[7] = dose: 100.0 mg/kg/injection, schedule: Q04DX003 (ip), vehicle: saline with Tween-80
[8] = dose: 200.0 mg/kg/injection, schedule: Q04DX003 (ip), vehicle: saline with Tween-80
[9] = dose: 400.0 mg/kg/injection, schedule: Q04DX003 (ip), vehicle: saline with Tween-80
[10] = dose: 12.5 mg/kg/injection, schedule: Q04DX003 (ip), vehicle: Klucel (hydroxypropylcellulose) (HPC)
[11] = dose: 25.0 mg/kg/injection, schedule: Q04DX003 (ip), vehicle: Klucel (hydroxypropylcellulose) (HPC)
[12] = dose: 12.5 mg/kg/injection, schedule: Q01DX009 (ip), vehicle: Klucel (hydroxypropylcellulose) (HPC)
[13] = dose: 6.25 mg/kg/injection, schedule: Q01DX009 (ip), vehicle: saline with Tween-80
[14] = dose: 7.5 mg/kg/injection, schedule: Q01DX009 (ip), vehicle: Klucel (hydroxypropylcellulose) (HPC)
[15] = dose: 15.0 mg/kg/injection, schedule: Q01DX009 (ip), vehicle: Klucel (hydroxypropylcellulose) (HPC)

For `CCCCCC/C=C/C#CCCCCCCCC(=O)O`, the T/C (dose: 37.5 mg/kg/injection, schedule: Q01DX009 (ip), vehicle: Klucel (hydroxypropylcellulose) (HPC)) was 107 % of control, the T/C (dose: 75.0 mg/kg/injection, schedule: Q01DX009 (ip), vehicle: Klucel (hydroxypropylcellulose) (HPC)) was 99 % of control and the T/C (dose: 150.0 mg/kg/injection, schedule: Q01DX009 (ip), vehicle: Klucel (hydroxypropylcellulose) (HPC)) was 101 % of control.

With `Nc1ccc(-c2c(N)ncc3ccccc23)cc1` the T/C [1] was 101 % of control, the T/C [2] was 104 % of control and the T/C [3] was 103 % of control.

With `Cc1ncc([N+](=O)[O-])n1CCSC(N)=O` the T/C [1] was 97 % of control and 99 % of control, the T/C [2] was 95 % of control and 102 % of control and the T/C [3] was 101 % of control. For the same molecule, the T/C [4] was 97 % of control and 101 % of control, the T/C [5] was 91 % of control and 96 % of control and the T/C [6] was 92 % of control.

For `O=C(CCl)NCC(=O)NC(Cc1ccccc1)C(=O)O` (stereo not drawn) (ClAc-Gly-[ξF]-OH), the T/C [3] was 103 % of control, the T/C [4] was 100 % of control and the T/C [5] was 93 % of control.

In the case of `O=C(O)C1C2CCC1C2` (stereo not drawn), the T/C (dose: 25.0 mg/kg/injection, schedule: Q04DX003 (ip), vehicle: saline with Tween-80) is reported as 103 % of control, the T/C (dose: 50.0 mg/kg/injection, schedule: Q04DX003 (ip), vehicle: saline with Tween-80) is reported as 102 % of control and the T/C [7] is reported as 97 % of control and 102 % of control.

For `CC(C)C(Br)C(=O)NC(Cc1ccccc1)C(=O)O` (stereo not drawn), the T/C [4] was 104 % of control and the T/C [5] was 95 % of control.

For `COc1cccc2c1C(=O)c1c(O)c3c(c(O)c1C2=O)C[C@@](O)(C(=O)CO)C[C@@H]3OC1CC(N2CCOCC2C#N)C(O)C(C)O1` (stereo partly drawn), the T/C (dose: 37.5 micrograms/kg/injection, schedule: Q01DX001 (ip), vehicle: water) was 161 % of control.

`CCCCN(c1ccccc1)c1ncnc2c1cnn2C` was tested, and the T/C [7] was 100 % of control, the T/C [8] was 102 % of control and the T/C [9] was 100 % of control.

With `CC1NCCNCCNCCNC(C)c2cccc1n2` (stereo not drawn) the T/C (dose: 6.25 mg/kg/injection, schedule: Q01DX009 (ip), vehicle: saline) was 107 % of control, the T/C (dose: 12.5 mg/kg/injection, schedule: Q01DX009 (ip), vehicle: saline) was 98 % of control and the T/C (dose: 25.0 mg/kg/injection, schedule: Q01DX009 (ip), vehicle: saline) was 102 % of control.

For `CCCCCCCCCCCCCCCC(=O)N(CCC#N)CCCCCCCCCN(CCC#N)C(=O)CCCCCCCCCCCCCCC`, the T/C [10] was 88 % of control and the T/C [11] was 90 % of control.

For `CCCc1c(Cl)nc(Cl)nc1Cl`, the T/C (dose: 6.25 mg/kg/injection, schedule: Q01DX009 (ip), vehicle: Klucel (hydroxypropylcellulose) (HPC)) was 110 % of control, the T/C [12] was 103 % of control and the T/C (dose: 25.0 mg/kg/injection, schedule: Q01DX009 (ip), vehicle: Klucel (hydroxypropylcellulose) (HPC)) was 101 % of control and 109 % of control.

`O=C(/C=C\c1ccccc1)/C=C/c1ccccc1` was tested, and the T/C [4] was 104 % of control, the T/C [7] was 102 % of control and the T/C [5] was 96 % of control. The T/C [8] was 100 % of control, the T/C [6] was 92 % of control and the T/C [9] was 102 % of control.

For `[N-]=[N+]=C1N=CN=C1c1ncn[nH]1`, the T/C (dose: 3.12 mg/kg/injection, schedule: Q01DX009 (ip), vehicle: carboxymethylcellulose (CMC)) was 107 % of control and the T/C (dose: 6.25 mg/kg/injection, schedule: Q01DX009 (ip), vehicle: carboxymethylcellulose (CMC)) was 119 % of control.

With `NCCN.[Ni+2].[O-]c1ccccc1[O-].[O-]c1ccccc1[O-]` the T/C (dose: 1.56 mg/kg/injection, schedule: Q01DX009 (ip), vehicle: saline with Tween-80) was 100 % of control, the T/C (dose: 3.13 mg/kg/injection, schedule: Q01DX009 (ip), vehicle: saline with Tween-80) was 97 % of control and the T/C [13] was 87 % of control. For the same molecule, the T/C [1] was 87 % of control.

With `COc1ccccc1NC(=O)Oc1ccc(OCc2ccccc2)cc1` the T/C [4] was 105 % of control, the T/C [5] was 97 % of control and the T/C [6] was 92 % of control.

In the case of `Cn1c(CC#N)c(C[N+](C)(C)C)c2ccccc21`, the T/C (dose: 1.25 mg/kg/injection, schedule: Q01DX009 (ip), vehicle: saline with Tween-80) is reported as 104 % of control, the T/C (dose: 2.5 mg/kg/injection, schedule: Q01DX009 (ip), vehicle: saline with Tween-80) is reported as 86 % of control and the T/C (dose: 5.0 mg/kg/injection, schedule: Q01DX009 (ip), vehicle: saline with Tween-80) is reported as 100 % of control.

For `O=C(NC(C(=O)O)c1ccccc1)OCc1ccccc1` (stereo not drawn), the T/C [3] was 97 % of control, the T/C [4] was 98 % of control and the T/C [5] was 98 % of control.

In the case of `CCOc1ccc2c(ccc(/C=C\c3cc(C)c4cccnc4c3O)[n+]2C)c1`, the T/C [13] is reported as 102 % of control and the T/C [1] is reported as 101 % of control.

In the case of `Cc1c2cnccc2c(C)c2c1c1ccccc1n2CC1CO1` (stereo not drawn), the T/C (dose: 3.75 mg/kg/injection, schedule: Q01DX009 (ip), vehicle: Klucel (hydroxypropylcellulose) (HPC)) is reported as 117 % of control, the T/C [14] is reported as 114 % of control and the T/C [15] is reported as 121 % of control.

In the case of `O=C(Nc1ccc([N+](=O)[O-])cc1)Nc1nccs1`, the T/C (dose: 50.0 mg/kg/injection, schedule: Q01DX009 (ip), vehicle: distilled water + Tween-80) is reported as 152 % of control.

With `CCOC(=O)C(C)(C)Oc1ccc(Cl)cc1` the T/C [3] was 97 % of control and 113 % of control, the T/C [4] was 88 % of control and 113 % of control and the T/C [5] was 102 % of control.

With `CN(C)CCCN1c2ccc(O)cc2Sc2ccc(Cl)cc21` the T/C (dose: 3.1 mg/kg/injection, schedule: Q01DX009 (ip), vehicle: other) was 92 % of control, the T/C [3] was 117 % of control and the T/C [4] was 124 % of control.

For `CCCCOC(=O)C(CC)(CC)C(=O)OCCCC`, the T/C (dose: 100.0 mg/kg/injection, schedule: Q01DX009 (ip), vehicle: saline) was 110 % of control, the T/C (dose: 200.0 mg/kg/injection, schedule: Q01DX009 (ip), vehicle: saline) was 113 % of control and the T/C (dose: 400.0 mg/kg/injection, schedule: Q01DX009 (ip), vehicle: saline) was 93 % of control.

In the case of `COc1cccc(/C=C/[N+](=O)[O-])c1OC`, the T/C (dose: 35.0 mg/kg/injection, schedule: Q01DX009 (ip), vehicle: saline with Tween-80) is reported as 117 % of control and the T/C (dose: 70.0 mg/kg/injection, schedule: Q01DX009 (ip), vehicle: saline with Tween-80) is reported as 104 % of control.

`CN(C)c1ccc2c(c1)C(Br)c1ccccc1-2` (stereo not drawn) was tested, and the T/C (dose: 6.25 mg/kg/injection, schedule: Q04DX003 (ip), vehicle: Klucel (hydroxypropylcellulose) (HPC)) was 102 % of control, the T/C [10] was 105 % of control and the T/C [11] was 97 % of control.

For `CC/C(=C(\c1ccccc1)c1ccc(OCCN(C)C)cc1)c1ccccc1`, the T/C (dose: 25.0 mg/kg/injection, schedule: Q01DX009 (ip), vehicle: suspension in saline) was 97 % of control, the T/C (dose: 50.0 mg/kg/injection, schedule: Q01DX009 (ip), vehicle: suspension in saline) was 93 % of control and the T/C (dose: 100.0 mg/kg/injection, schedule: Q01DX009 (ip), vehicle: suspension in saline) was 91 % of control. For the same molecule, the T/C (dose: 200.0 mg/kg/injection, schedule: Q01DX009 (ip), vehicle: suspension in saline) was 86 % of control.

In the case of `CCCCc1c(OC)cc(O)c2c1C(=O)c1[nH]c(C(=O)O)c(O)c(=O)c1C2=O`, the T/C [14] is reported as 96 % of control and the T/C [15] is reported as 96 % of control.

For `Cc1ccc(S(=O)(=O)NC(=S)S)cc1`, the T/C [1] was 88 % of control, the T/C [2] was 98 % of control and 122 % of control and the T/C [3] was 97 % of control. The T/C [4] was 92 % of control and 122 % of control.

With `O=NN1CCNC1=O` the T/C (dose: 1.5 mg/kg/injection, schedule: Q01DX009 (ip), vehicle: Klucel (hydroxypropylcellulose) (HPC)) was 98 % of control, the T/C (dose: 3.0 mg/kg/injection, schedule: Q01DX009 (ip), vehicle: Klucel (hydroxypropylcellulose) (HPC)) was 110 % of control and the T/C (dose: 6.0 mg/kg/injection, schedule: Q01DX009 (ip), vehicle: Klucel (hydroxypropylcellulose) (HPC)) was 101 % of control.

In the case of `CNC(=S)N/N=C1/c2cc(Cl)ccc2-c2c(Cl)cc(Cl)cc21`, the T/C [13] is reported as 91 % of control.

With `Cc1cc2nc(Cc3ccccc3)[nH]c2cc1C` the T/C [1] was 102 % of control, the T/C [2] was 105 % of control and the T/C [3] was 94 % of control.

With `COc1ccc(C2=CC(=O)N(C(C)C)C2=O)cc1` the T/C (dose: 20.0 mg/kg/injection, schedule: Q04DX003 (ip), vehicle: saline with Tween-80) was 109 % of control, the T/C (dose: 40.0 mg/kg/injection, schedule: Q04DX003 (ip), vehicle: saline with Tween-80) was 113 % of control and the T/C (dose: 80.0 mg/kg/injection, schedule: Q04DX003 (ip), vehicle: saline with Tween-80) was 111 % of control.

`C=C1C(=O)C2(C)OC2(C)C1C(=O)O` (stereo not drawn) was tested, and the T/C (dose: 1.25 mg/kg/injection, schedule: Q01DX009 (ip), vehicle: Klucel (hydroxypropylcellulose) (HPC)) was 109 % of control, the T/C (dose: 2.5 mg/kg/injection, schedule: Q01DX009 (ip), vehicle: Klucel (hydroxypropylcellulose) (HPC)) was 105 % of control and the T/C (dose: 5.0 mg/kg/injection, schedule: Q01DX009 (ip), vehicle: Klucel (hydroxypropylcellulose) (HPC)) was 99 % of control. For the same molecule, the T/C (dose: 10.0 mg/kg/injection, schedule: Q01DX009 (ip), vehicle: Klucel (hydroxypropylcellulose) (HPC)) was 93 % of control.

With `CS(=O)(=O)OCCCOS(C)(=O)=O` the T/C [12] was 91 % of control.
